Measured values published in patent publication US20160375103A1, “DIURETIC AND NATRIURETIC POLYPEPTIDES” (Mayo Foundation for Medical Education and Research, priority 2006, published 2016).

Experiments:
[1] = test system: paced dogs; experiment: 90 minute infusion of ASBNP.1 (100 pmol/kg/minute) in paced dogs; type: in vivo, dog; details: 100 pmol/kg/minute for 90 minutes
Experimental: FIG. 34 is a graph plotting urinary sodium excretion (microEq/min) in paced dogs at the indicated times after beginning administration of ASBNP.1 polypeptide (100 pmol/kg/minute) for 90 minutes. BL=baseline; 30 min=30 minutes of ASBNP.1 polypeptide administration; 60 min=60 minutes of ASBNP.1 polypeptide administration; 90 min=90 minutes of ASBNP.1 polypeptide administration; Washout=after washout period at stop of infusion; Rec 1=30 minutes after stopping infusion; and Rec 2=60 minutes after stopping infusion.
In another experiment, an ASBNP.1 polypeptide preparation was administered to dogs (100 pmol/kg/minute for 90 minutes). Urinary sodium excretion, urine flow, mean arterial blood pressure, renal blood flow, pulmonary capillary wedge pressure, and cardiac output were measured after 30, 60, and 90 minutes of administering the ASBNP.1 polypeptide. Administration of ASBNP.1 polypeptide was followed by a washout period of 30 minutes. The washout was performed by administering normal saline. Urinary sodium excretion, urine flow, mean arterial blood pressure, renal blood flow, pulmonary capillary wedge pressure, and cardiac output were measured again after the washout period, and after each of two recovery periods at 60 minutes (Rec 1) and 90 minutes (Rec 2) after administration of the ASBNP.1 polypeptide.

[2] = test system: HUVECs; experiment: cGMP levels in HUVECs; type: cell-based, human
Source text: FIG. 11 is a bar graph plotting cGMP levels in HUVECS treated with BNP, ASBNP, or ASBNP.1 at the indicated concentrations. OX represents oxidized, and non-OX represents non-oxidized.
(§1) In some embodiments, a polypeptide provide herein can lack the ability to stimulate production of cGMP in human umbilical vascular endothelial cells (HUVEC). Intracellular cGMP production can be assayed using, for example, the BIOTRACK cGMP enzyme immunoassay kit (Amersham Pharmacia Biotech). In other embodiments, a polypeptide provide herein can lack vasoactivity. Vasoactivity can be assessed by determining responsitivity of a blood vessel (e.g., a carotid artery in an organ chamber) to the polypeptide.
(§2) The following experiments were performed to compare the activities of BNP, ASBNP, and ASBNP.1 polypeptides. Briefly, synthesized forms of BNP, ASBNP, and ASBNP.1 were administered to HUVECs and HASMCs, and cGMP levels were determined.

[3] = test system: HASMCs; experiment: cGMP levels in HASMCs; type: cell-based
Experimental: FIG. 12 is a bar graph plotting cGMP levels in HASMCS treated with BNP, ASBNP, or ASBNP.1 at the indicated concentrations. OX represents oxidized, and non-OX represents non-oxidized.
as §2

[4] = test system: paced dog model of congestive heart failure (CHF); experiment: intravenous infusion in paced dog model of congestive heart failure (CHF), consecutive doses; type: in vivo; details: paced CHF dogs
Experimental: The biological effects of intravenous ABNP.1 infusion were tested in a paced dog model of congestive heart failure (CHF). Briefly, 10 dogs underwent surgical implantation of a programmable cardiac pacemaker (Medtronic, Minneapolis, Minn.). After postoperative recovery, the animals received 11 days of rapid ventricular pacing (240 beats/minute), which can induce overt congestive heart failure CHF as described elsewhere (Chen et al., Circulation, 100:2443-2448 (1999)). The dogs were intravenously infused with 2, 10, and 100 pmol of an ASBNP.1 polypeptide preparation, i.e., each dog received consecutive infusions of 2, 10, and 100 pmol of an ASBNP.1 polypeptide preparation.
Acute hemodynamic studies were performed at the time of infusion, and comparisons were made between groups and among dogs at baseline and during each infusion. Urine flow, urinary sodium excretion, distal fractional tubular sodium reabsorption, proximal tubular fractional sodium reabsorption, plasma cGMP levels, rennin levels, glomerular filtration rate, renal blood flow, mean arterial blood pressure, urinary cGMP excretion, urinary ANP excretion, urinary BNP excretion, plasma BNP levels, plasma ANP levels, pulmonary capillary wedge pressure, cardiac output, systemic vascular resistance, angiotensin II levels, and aldosterone levels were measured as described elsewhere (Chen et al., Am. J. Physiol. Regul. Integr. Comp. Physiol., 288: R1093-R1097 (2005) and Haber et al., J. Clin. Endocrinol. Metab., 29:1349-1355 (2005)). […] There was no effect on distal tubular fractional sodium reabsorption, proximal tubular fractional sodium reabsorption renal blood flow, plasma cGMP, mean arterial blood pressure, plasma BNP, plasma ANP, pulmonary capillary wedge pressure, or angiotensin II levels (FIGS. 17, 18, 19, 22, 23, 28, 29, and 32).

[5] = test system: rabbit artery that was pre-constricted; experiment: vasoactivity in pre-constricted rabbit artery (vascular rings); details: compared with BNP
Source text: FIG. 13 is a line graph plotting vasoactivity measurements obtained from rabbit vascular rings treated with either BNP, ASBNP, or ASBNP.1 at the indicated concentrations.
as §1, §2

[6] = test system: normal dogs; experiment: intravenous infusion of ASBNP.1 in normal dogs; type: in vivo, dog
Experimental: A truncated form of ASBNP that terminates prior to the cysteine and contains a 13 amino acid C-terminus tail was designed and synthesized. This polypeptide is referred to as an ASBNP.1 polypeptide (FIG. 1). The biological effects of intravenous ABNP.1 infusion were tested in normal dogs. Briefly, six normal dogs were infused with 2, 10, and 100 pmol of an ASBNP.1 polypeptide preparation, i.e., each dog received consecutive infusions of 2, 10, and 100 pmol of an ASBNP.1 polypeptide preparation. Urine flow, urinary sodium excretion, distal fractional tubular sodium reabsorption, proximal tubular fractional sodium reabsorption, mean arterial blood pressure, plasma cGMP levels, glomerular filtration rate, renal blood flow, and plasma renin levels were measured as described elsewhere (Chen et al., Am. J. Physiol. Regul. Integr. Comp. Physiol., 288: R1093-R1097 (2005) and Haber et al., J. Clin. Endocrinol. Metab., 29:1349-1355 (2005)). […] Systemic administration of the ASBNP.1 polypeptide had no effect on glomerular filtration rate, renal blood flow, or mean arterial blood pressure (FIGS. 8-10).

[7] = consecutive i.v. infusions of 2, 10, 100 pmol
[8] = normal dogs, 2, 10, 100 pmol i.v.
[9] = normal dogs, consecutive i.v. infusions of 2, 10, 100 pmol

ASBNP.1: truncated form of ASBNP that terminates prior to the cysteine, 13 amino acid C-terminus tail; 42 amino acid residues (SEQ ID NO:1) (SPKMVQGSGCFGRKMDRISSSSGLGCKGKHPLPPRPPSPIPV)
PAP (pulmonary arterial pressure) [1]: without a change | RAP (right arterial pressure) [1]: without a change | cardiac output [1]: No significant effect | mean arterial blood pressure [1]: No significant effect | renal blood flow [1]: No significant effect | urinary sodium excretion [1]: increase | urine flow [1]: increase | pulmonary capillary wedge pressure ([1]; 60 minutes after administration): decrease | cGMP levels in HUVECs [2]: no effect | cGMP levels in HASMCs [3]: no effect | aldosterone [4]: increased from the administration of the low level of polypeptide and continued to increase throughout the remainder of the experiment | angiotensin II levels [4]: no effect | cardiac output [4]: decreased from the administration of the high level of polypeptide and remained decrease throughout the remainder of the experiment | distal tubular fractional sodium reabsorption [4]: no effect | mean arterial blood pressure [4]: no effect | plasma ANP [4]: no effect | plasma BNP [4]: no effect | plasma cGMP [4]: no effect | proximal tubular fractional sodium reabsorption [4]: no effect | pulmonary capillary wedge pressure [4]: no effect | renal blood flow [4]: no effect | renin [4]: increased throughout the washout period | systemic vascular resistance [4]: increased during the high, super high, washout, and recovery 1 phases | urinary sodium excretion (natriuretic effect) [4, 7]: diuretic but not natriuretic effects | urine flow (diuretic effect) [4, 7]: diuretic but not natriuretic effects | glomerular filtration rate ([4]; high is 10 pmol): increased glomerular filtration rate at the high level | urinary cGMP excretion ([4]; high is 10 pmol, super high is 100 pmol): increased urinary cGMP excretion at the high and super high levels | urinary ANP excretion ([4]; high level (10 pmol)): increased urinary ANP excretion | urinary BNP excretion ([4]; super high level (100 pmol)): increased urinary BNP excretion | vasoactivity on pre-constricted rabbit artery [5]: no effect | distal and proximal tubular fractional sodium reabsorption [6, 8]: targeted distal tubules | glomerular filtration rate [6, 8]: no effect | mean arterial blood pressure [6, 8]: no effect | renal blood flow [6, 8]: no effect | urinary sodium excretion (natriuretic effect) [6, 9]: diuretic and natriuretic effects | urine flow (diuretic effect) [6, 9]: diuretic and natriuretic effects | plasma cGMP ([6]; normal dogs, super high is 100 pmol): elevated at the super high dose | plasma renin ([6]; normal dogs, two higher doses 10 and 100 pmol): trend towards a decreased renin at the two higher doses

ASBNP: variant form of BNP generated by alternative splicing, 60 amino acid residues in length (SEQ ID NO:4) (SPKMVQGSGCFGRKMDRISSSSGLGCKGKHPLPPRPPSPIPVCDTVRVTLGFVVSGNHTL) [reference compound]
cGMP levels in HUVECs [2]: minimal effects | cGMP levels in HASMCs [3]: minimal effects | vasoactivity on pre-constricted rabbit artery [5]: no effect
